Measurements reported in patent publication US9643964B2, “3-(2-aminopyrimidin-4-yl)-5-(3-hydroxypropynyl)-1H-pyrrolo[2,3-C]pyridine derivatives as NIK inhibitors for the treatment of cancer” (Janssen Pharmaceutica NV, priority 2013, dated 2017).

Legend:
LP-1 cells = assay: Biological Assay C: antiproliferative activity on LP-1 cells (CellTiter-Glo); format: cell-based, human; conditions: Homo sapiens, LP-1, 72 h, 72 hr treatment; averaged values
Procedure, shortened: (§1)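 Luminescent ATP signal (CellTiter-Glo) measures growth of myeloma cells following a 72 h compound treatment. Values for the time-zero blank are subtracted, and each mean of duplicate wells is given as percentage of the no-drug control.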

JJN-3 cells = assay: Biological Assay C: antiproliferative activity on JJN-3 cells (CellTiter-Glo); format: cell-based, human; conditions: Homo sapiens, JJN-3, 72 h, 72 hr treatment; averaged values
Procedure, shortened: as §1

[1] = test system: P-IKKα levels in L363 cells; assay: Biological Assay B: effect of compounds on P-IKKα levels in L363 cells; format: cell-based; conditions: Homo sapiens, L-363, averaged values, read-out: IKKα Cellular IC50
Method: Effect of Compounds on P-IKKα Levels in L363 Cells
All compounds tested were dissolved in DMSO and further dilutions were made in culture medium. Final DMSO concentration was 1% (v/v) in cell assays. The human L363 cells (ATCC) were cultured in RPMI 1640 medium supplemented with GlutaMax and 10% fetal calf serum (PAA). Cells were routinely maintained at densities of 0.2×10^6 cells per ml-1×10^6 cells per ml at 37° C. in a humidified 5% CO2 atmosphere. Cells were passaged twice a week splitting back to obtain the low density. Cells were seeded in 96 well plates (Nunc 167008) at 2×10^6 per ml media in a volume of 75 μl per well plus 25 μl 1 μg/ml recombinant human B-cell activating factor BAFF/B1YS/TNFSF13B. Seeded cells were incubated at 37° C. in a humidified 5% CO2 atmosphere for 24 hr. Drugs and/or solvents were added (20 μl) to a final volume of 120 μl. Following 2 hr treatment plates were removed from the incubator and cell lysis was achieved by the addition of 30 μl 5× lysis buffer followed by shaking on a plate shaker at 4° C. for 10 min. At the end of this incubation lysed cells were centrifuged at 800×g for 20 min at 4° C. and the lysate was assessed for P-IKKα levels by sandwich immuno-assay carried out in anti-rabbit antibody coated Mesoscale plates. Within an experiment, the results for each treatment were the mean of 2 replicate wells. For initial screening purposes, compounds were tested using an 8 point dilution curve (serial 1:3 dilutions). For each experiment, controls (containing MG132 and BAFF but no test drug) and a blank incubation (containing MG132 and BAFF and 10 μM ADS125117, a test concentration known to give full inhibition) were run in parallel. The blank incubation value was subtracted from all control and sample values. To determine the IC50 a sigmoidal curve was fitted to the plot of % inhibition of control P-IKKα levels versus Log10 compound concentration.

[2] = biological target: T1, Recombinant Human NF-kappaB-Inducing Kinase (NIK/MAP3K14) (Homo sapiens, UniProt Q99558); assay: Biological Assay A2: inhibition of auto-phosphorylation of recombinant human NIK/MAP3K14 (AlphaScreen); format: biochemical; conditions: auto-phosphorylation; averaged over all measurements on all batches; read-out: αscreen IC50
T1 sequence (Q99558 whole entry): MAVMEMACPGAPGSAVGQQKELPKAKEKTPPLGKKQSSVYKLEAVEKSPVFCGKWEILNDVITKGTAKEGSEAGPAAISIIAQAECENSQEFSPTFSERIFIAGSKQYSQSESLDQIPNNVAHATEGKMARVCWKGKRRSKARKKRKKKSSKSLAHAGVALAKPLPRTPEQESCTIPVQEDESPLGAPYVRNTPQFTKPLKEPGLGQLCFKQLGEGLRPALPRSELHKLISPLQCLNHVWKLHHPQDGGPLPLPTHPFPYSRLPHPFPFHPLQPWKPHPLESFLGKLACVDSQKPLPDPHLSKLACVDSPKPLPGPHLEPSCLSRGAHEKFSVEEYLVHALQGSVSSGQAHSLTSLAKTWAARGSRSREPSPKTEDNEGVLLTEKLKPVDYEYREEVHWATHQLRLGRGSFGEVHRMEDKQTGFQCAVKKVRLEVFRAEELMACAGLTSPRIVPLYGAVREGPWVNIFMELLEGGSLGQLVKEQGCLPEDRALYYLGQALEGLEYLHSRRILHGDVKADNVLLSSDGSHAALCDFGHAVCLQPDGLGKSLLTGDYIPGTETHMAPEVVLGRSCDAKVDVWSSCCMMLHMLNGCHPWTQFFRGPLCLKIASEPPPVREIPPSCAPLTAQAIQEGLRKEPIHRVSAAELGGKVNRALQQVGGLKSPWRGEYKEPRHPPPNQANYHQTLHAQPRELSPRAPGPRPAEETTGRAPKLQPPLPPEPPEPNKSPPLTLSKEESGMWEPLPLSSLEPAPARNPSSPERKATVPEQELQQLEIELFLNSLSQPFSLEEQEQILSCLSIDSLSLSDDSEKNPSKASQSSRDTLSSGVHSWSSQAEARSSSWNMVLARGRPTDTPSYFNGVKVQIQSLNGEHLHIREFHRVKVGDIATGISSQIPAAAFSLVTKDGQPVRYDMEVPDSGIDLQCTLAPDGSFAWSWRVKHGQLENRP
Procedure, shortened: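 AlphaScreen readout of anti-phospho-IKK Ser176/180 signal after 1 h, 25° C. incubation of 0.2 nM GST-NIK with compound and 25 microM ATP (Tris pH 7.5 buffer, MgCl2, 1% DMSO final). IC50 from sigmoidal fit of blank-corrected % inhibition against Log10 concentration.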

L-363 cells = assay: Biological Assay C: antiproliferative activity on L-363 cells (CellTiter-Glo); format: cell-based, human; conditions: Homo sapiens, L-363, 72 h, 72 hr treatment; averaged values
Procedure, shortened: as §1

[3] = biological target: T1, Recombinant Human NF-kappaB-Inducing Kinase (NIK/MAP3K14); assay: Biological Assay A: inhibition of recombinant human NIK/MAP3K14 activity (MBP phosphorylation, Mesoscale); format: biochemical; conditions: averaged over all measurements on all batches; read-out: Biochemical (MSD MBP) IC50
Method: Inhibition of Recombinant Human NF-kappaB-Inducing Kinase (NIK/MAP3K14) Activity
Assay buffer was 50 mM Tris pH 7.5 containing 1 mM EGTA (ethylene glycol tetraacetic acid), 1 mM DTT (dithiothreitol), 0.1 mM Na3VO4, 5 mM MgCl2, 0.01% Tween 20. Assays were carried out in 384 well Mesoscale high binding plates which had been coated with myelin basic protein (MBP) and blocked with bovine serum albumin to prevent non-specific protein binding. All compounds tested were dissolved in dimethyl sulfoxide (DMSO) and further dilutions were made in assay buffer. Final DMSO concentration was 1% (v/v) in assays. Incubations consisted of compound (1% DMSO in control and blank wells), 25 μM Adenosine-5′-triphosphate (ATP), and 10 nM NIK/MAP3K14 substituting enzyme with buffer in the blank wells. Incubations were carried out for 1 h at 25° C. and were followed by washing and sequential incubation with rabbit anti-phospho-MBP and anti-rabbit Ig Sulfotag antibody before reading bound Sulfotag on a Mesoscale Discovery. Signal obtained in the wells containing blank samples was subtracted from all other wells and IC50's were determined by fitting a sigmoidal curve to % inhibition of control versus Log10 compound concentration.

**Q.** Which results are given for `CC(C)(O)Cn1cc(-c2ccnc(N)n2)c2cc(C#CC3(O)CCCCC3)ncc21` [Compound 38]?
**A.** EC50 (LP-1 cells): > 10000 nM; EC50 (JJN-3 cells): 1900 nM; IC50 [1]: 370 nM; IC50 [2]: 56 nM; EC50 (L-363 cells): 15000 nM; IC50 [3]: 21 nM

**Q.** With `CC(C)C(C)(O)C#Cc1cc2c(-c3ccnc(N)n3)cn(CC(C)(C)O)c2cn1` (stereo not drawn) [Compound 40] as the compound, how does the EC50 (LP-1 cells) read?
**A.** 25000 nM

**Q.** And the EC50 (JJN-3 cells)?
**A.** 2300 nM

**Q.** And the IC50 [1]?
**A.** 530 nM

**Q.** What about the IC50 [2] of the same compound?
**A.** 110 nM

**Q.** What about the EC50 (L-363 cells) of the same compound?
**A.** 4500 nM

**Q.** And the IC50 [3]?
**A.** 43 nM

**Q.** What does the source list for `COCCn1cc(-c2nc(N)ncc2C#N)c2cc(C#CC(C)(C)O)ncc21` [Compound 41]?
**A.** EC50 (LP-1 cells): 2200 nM; EC50 (JJN-3 cells): 240 nM; IC50 [1]: 43 nM; IC50 [2]: 9 nM; EC50 (L-363 cells): 290 nM; IC50 [3]: 3.5 nM

**Q.** Which results are given for `CC(C)(O)Cn1cc(-c2ccnc(N)n2)c2cc(C#CC3(O)CCC3)ncc21` [Compound 42]?
**A.** EC50 (LP-1 cells): 16000 nM; EC50 (JJN-3 cells): 330 nM; IC50 [1]: 84 nM; IC50 [2]: 24 nM; EC50 (L-363 cells): 1500 nM; IC50 [3]: 5.7 nM

**Q.** Which results are given for `CCC(C)(O)C#Cc1cc2c(-c3ccnc(N)n3)cn(CC(C)(C)O)c2cn1` (stereo not drawn) [Compound 43]?
**A.** EC50 (LP-1 cells): > 10000 nM; EC50 (JJN-3 cells): 650 nM; IC50 [1]: 280 nM; IC50 [2]: 38 nM; EC50 (L-363 cells): 4100 nM; IC50 [3]: 29 nM

**Q.** `COCCCn1cc(-c2ccnc(N)n2)c2cc(C#CC(C)(C)O)ncc21` [Compound 44] was tested. Which EC50 (LP-1 cells) did it give?
**A.** 1700 nM

**Q.** And the EC50 (JJN-3 cells)?
**A.** 250 nM

**Q.** What about the IC50 [1] of the same compound?
**A.** 36 nM

**Q.** And the IC50 [2]?
**A.** 21 nM

**Q.** What about the EC50 (L-363 cells) of the same compound?
**A.** 400 nM

**Q.** What about the IC50 [3] of the same compound?
**A.** 25 nM

**Q.** How did the EC50 (LP-1 cells) turn out when `CC(C)(O)C#Cc1cc2c(-c3nc(N)ncc3F)c[nH]c2cn1` [Compound 45] was run?
**A.** 590 nM

**Q.** And the EC50 (JJN-3 cells)?
**A.** 22 nM

**Q.** What about the IC50 [1] of the same compound?
**A.** 12 nM

**Q.** And the IC50 [2]?
**A.** 2 nM

**Q.** And the EC50 (L-363 cells)?
**A.** 90 nM

**Q.** What about the IC50 [3] of the same compound?
**A.** 3.9 nM

**Q.** Which results are given for `Cc1c(-c2ccnc(N)n2)c2cc(C#CC(C)(C)O)ncc2n1CC(C)(C)O` [Compound 46]?
**A.** EC50 (LP-1 cells): > 10000 nM; EC50 (JJN-3 cells): 1100 nM; IC50 [1]: 180 nM; IC50 [2]: 55 nM; EC50 (L-363 cells): 3600 nM; IC50 [3]: 60 nM

**Q.** Which results are given for `CCNc1nccc(-c2c[nH]c3cnc(C#CC(C)(C)O)cc23)n1` [Compound 48]?
**A.** EC50 (LP-1 cells): 3900 nM; EC50 (JJN-3 cells): 380 nM; IC50 [1]: 260 nM; IC50 [2]: 16 nM; EC50 (L-363 cells): 650 nM; IC50 [3]: 65 nM

**Q.** Which EC50 (LP-1 cells) does the source give for `CNC(=O)CCn1cc(-c2ccnc(N)n2)c2cc(C#CC(C)(C)O)ncc21` [Compound 49] here?
**A.** > 10000 nM

**Q.** And the EC50 (JJN-3 cells)?
**A.** 32000 nM

**Q.** What about the IC50 [1] of the same compound?
**A.** 5900 nM

**Q.** And the IC50 [2]?
**A.** 360 nM

**Q.** And the EC50 (L-363 cells)?
**A.** > 10000 nM

**Q.** And the IC50 [3]?
**A.** 150 nM

**Q.** Which results are given for `CN(C)C(=O)CCn1cc(-c2ccnc(N)n2)c2cc(C#CC(C)(C)O)ncc21` [Compound 50]?
**A.** EC50 (LP-1 cells): > 10000 nM; EC50 (JJN-3 cells): 2700 nM; IC50 [1]: 650 nM; IC50 [2]: 230 nM; EC50 (L-363 cells): 7500 nM; IC50 [3]: 140 nM

**Q.** `CC(C)(O)C#Cc1cc2c(-c3ccnc(N)n3)cn(CCC(C)(C)O)c2cn1` [Compound 51] was tested. Which EC50 (LP-1 cells) did it give?
**A.** > 10000 nM

**Q.** And the EC50 (JJN-3 cells)?
**A.** 990 nM

**Q.** And the IC50 [1]?
**A.** 83 nM

**Q.** What about the IC50 [2] of the same compound?
**A.** 23 nM

**Q.** And the EC50 (L-363 cells)?
**A.** 2400 nM

**Q.** And the IC50 [3]?
**A.** 48 nM

**Q.** For `COCCNC(=O)c1[nH]c2cnc(C#CC(C)(C)O)cc2c1-c1ccnc(N)n1` [Compound 52], which EC50 (LP-1 cells) is on record?
**A.** 30000 nM

**Q.** What about the EC50 (JJN-3 cells) of the same compound?
**A.** 1200 nM

**Q.** What about the IC50 [1] of the same compound?
**A.** 99 nM

**Q.** What about the IC50 [2] of the same compound?
**A.** 33 nM

**Q.** What about the EC50 (L-363 cells) of the same compound?
**A.** 3200 nM

**Q.** And the IC50 [3]?
**A.** 29 nM

**Q.** What does the source list for `CC(C)(O)Cn1cc(-c2ccnc(N)n2)c2cc(C#CC(C)(O)CC3CC3)ncc21` (stereo not drawn) [Compound 53]?
**A.** EC50 (LP-1 cells): > 10000 nM; EC50 (JJN-3 cells): 450 nM; IC50 [1]: 370 nM; IC50 [2]: 57 nM; EC50 (L-363 cells): > 10000 nM; IC50 [3]: 45 nM

**Q.** With `COCCn1cc(-c2nc(N)ncc2F)c2cc(C#CC(C)(C)O)ncc21` [Compound 54] as the compound, how does the EC50 (LP-1 cells) read?
**A.** 330 nM

**Q.** And the EC50 (JJN-3 cells)?
**A.** 89 nM

**Q.** And the IC50 [1]?
**A.** 21 nM

**Q.** And the IC50 [2]?
**A.** 17 nM

**Q.** And the EC50 (L-363 cells)?
**A.** 59 nM

**Q.** What about the IC50 [3] of the same compound?
**A.** 27 nM
